US20250304538A1, “PROCESS OF PREPARING REMIBRUTINIB SUBSTANTIALLY FREE OF NITROSAMINE IMPURITY” (NOVARTIS AG, priority 2024, published 2025)
“Also recorded” adds a separate entry of the source. Each block holds one compound with its values, some of them ahead of it.

Columns and labels:
[1] = tested on: Salmonella typhimurium strains TA98, TA100, TA1535 and TA1537; test: Enhanced Ames Test (EAT), pre-incubation method, Salmonella strains; format: cell-based
Description: N-(3-(6-amino-5-(2(methyl)(nitroso)amino)ethoxy)pyrimidin-4-yl)-5-fluoro-2-methylphenyl)-4-cyclopropyl-2-fluorobenzamide was evaluated in the EAT performed under GLP following the EMA and FDA guidance (2023) for the EAT conditions for N-nitrosamines.
In this study N-(3-(6-amino-5-(2(methyl)(nitroso)amino)ethoxy)pyrimidin-4-yl)-5-fluoro-2-methylphenyl)-4-cyclopropyl-2-fluorobenzamide was evaluated for mutations in Salmonella typhimurium strains TA98, TA100, TA1535 and TA1537 and Escherichia coli strain WP2 uvrA pKM101, both in the absence and presence of 30% rat and hamster metabolic activation (β-naphthoflavone/phenobarbital-induced rat and hamster liver post-mitochondrial S-9 fraction). The test used pre-incubation method (30 minutes). N-(3-(6-amino-5-(2(methyl)(nitroso)amino)ethoxy)pyrimidin-4-yl)-5-fluoro-2-methylphenyl)-4-cyclopropyl-2-fluorobenzamide was formulated in dimethyl sulfoxide (DMSO) at concentrations of 5, 16, 50, 160, 500, 1600 and 5000 μg/plate.

[2] = Accelerated predictive stability (APS) of LOU064 drug substance, open dish; format: physicochemical; details: all APS open dish conditions
Description: In order to assess the stability behavior of the nitrosamine impurity (N-(3-(6-amino-5-(2(methyl)(nitroso)amino)ethoxy)pyrimidin-4-yl)-5-fluoro-2-methylphenyl)-4-cyclopropyl-2-fluorobenzamide) in LOU064 drug substance, an accelerated predictive stability (APS) was performed.
A statistical based approach, Accelerated Predictive Stability (APS), using the humidity modified Arrhenius equation [Waterman and al., International Journal of Pharmaceutics 293 (1-2), 101-125 (2005)] is applied to understand stability behavior and predict the retest period. […] Short studies are conducted on open dish samples of representative batch (es) of drug substance at accelerated conditions using a wide range of temperatures and humidity with the goal of reaching the specification limit for the identified retest period limiting attributes at each condition as detailed below. […] The humidity corrected Arrhenius equation reflects both the influence of the temperature, and the moisture on the kinetics of the degradation product formation. The resulting open-dish data are fitted to a humidity-corrected Arrhenius equation^1 using ASAPprime® (current version 6.0): […]
3 batches of LOU064 drug substance were placed in open dish under the protocol summarized below:
(§1) The pulled samples were analyzed by HPLC-MS as per method described in example 1 and reported below in tables 9 and 10.

[3] = APS of LOU064 drug substance, closed container with or without nitrogen purge; format: physicochemical; details: 60-80 °C, up to 27 days
Description: Samples of batches of LOU064 drug substance were prepared in duplicated in closed container, with one sample being purged with nitrogen and the other not.
as §1

[4] = Stability of intermediate F8: nitrosamine content overtime (air exposure, storage); format: physicochemical; details: upon exposure to the air or upon storage
Description: • Limit-test by LC-MS (SIM mode), AJS-ES, positive mode, SIM Ion: 483.2 [M+H]+ • Column: YMC-Triart C18, 100×3.0 mm, particle size 1.9 μm, 12 nm • Mobile phase A: Dissolve 0.315 g of Ammonium formate in 1000 mL of water, add 0.5 mL of formic acid • Mobile phase B: Methanol • Sample solvent: Methanol+0.2% (v/v) Formic acid • Sample solution: approx. 100 mg of the sample in 20 mL • Flow: 0.6 mL/min • Injection volume: 3 μL • Autosampler cooled, 8° C. • Column temperature. 80° C.
Same method was used to determine the level of nitrosamine content in intermediate F8, in salts or in solvate of LOU064.
The content of nitrosamine in intermediate F8 was determined using method described in Example 1.

SMILES: Cc1c(NC(=O)c2ccc(C3CC3)cc2F)cc(F)cc1-c1ncnc(N)c1OCCN(C)N=O [N-(3-(6-amino-5-(2(methyl)(nitroso)amino)ethoxy)pyrimidin-4-yl)-5-fluoro-2-methylphenyl)-4-cyclopropyl-2-fluorobenzamide]
- mutagenicity ([1]; in the presence of rat S-9): not mutagenic
- Enhanced Ames Test (EAT) outcome ([1]; overall conclusion of the EAT): positive; also recorded: mutagenic under sensitive metabolic conditions
- increases in revertant numbers ([1]; strain TA100, presence of hamster S-9): 2 fold
- increases in revertant numbers ([1]; strain TA1535, presence of hamster S-9): 3 fold
- mutagenicity ([1]; without metabolic activation): not mutagenic

SMILES: CCN(CC)N=O [NDEA, N-nitrosodiethylamine, reference compound]
- induced mutations ([1]; strain TA100, presence of 30% rat S-9): > 2 fold

- stability behavior of the nitrosamine impurity (in words) [2]: stable
SMILES: C=CC(=O)N(C)CCOc1c(N)ncnc1-c1cc(F)cc(NC(=O)c2ccc(C3CC3)cc2F)c1C [LOU064 drug substance, N-(3-(6-Amino-5-(2-(N-methylacrylamido)ethoxy)pyrimidin-4-yl)-5-fluoro-2-methylphenyl)-4-cyclopropyl-2-fluorobenzamide]
- nitrosamine, stored closed under nitrogen versus closed without nitrogen (in words) [3]: no difference observed beyond analytical variability

- content of nitrosamine in intermediate F8 (trend) [4]: increased overtime
SMILES: CNCCOc1c(N)ncnc1-c1cc(F)cc(NC(=O)c2ccc(C3CC3)cc2F)c1C [F8]

SMILES: CN(CCc1ccccc1)N=O [MNPA, N-methyl-N-nitroso-(2-phenylethyl)amine, reference compound]
- Increases (mutations) ([1]; strain TA98, presence of hamster S-9): up to 1.9
